Key:
CPT-1 = molecular target: T1, CPT-1 (Mus musculus, UniProt P97742); assay: Palmitoyl CoA-driven respiration in permeabilized BMDMs; assay type: cell-based
T1 construct: endogenous in cells; host or cells: mouse bone marrow-derived macrophages (BMDMs)
T1 sequence (P97742 1-773): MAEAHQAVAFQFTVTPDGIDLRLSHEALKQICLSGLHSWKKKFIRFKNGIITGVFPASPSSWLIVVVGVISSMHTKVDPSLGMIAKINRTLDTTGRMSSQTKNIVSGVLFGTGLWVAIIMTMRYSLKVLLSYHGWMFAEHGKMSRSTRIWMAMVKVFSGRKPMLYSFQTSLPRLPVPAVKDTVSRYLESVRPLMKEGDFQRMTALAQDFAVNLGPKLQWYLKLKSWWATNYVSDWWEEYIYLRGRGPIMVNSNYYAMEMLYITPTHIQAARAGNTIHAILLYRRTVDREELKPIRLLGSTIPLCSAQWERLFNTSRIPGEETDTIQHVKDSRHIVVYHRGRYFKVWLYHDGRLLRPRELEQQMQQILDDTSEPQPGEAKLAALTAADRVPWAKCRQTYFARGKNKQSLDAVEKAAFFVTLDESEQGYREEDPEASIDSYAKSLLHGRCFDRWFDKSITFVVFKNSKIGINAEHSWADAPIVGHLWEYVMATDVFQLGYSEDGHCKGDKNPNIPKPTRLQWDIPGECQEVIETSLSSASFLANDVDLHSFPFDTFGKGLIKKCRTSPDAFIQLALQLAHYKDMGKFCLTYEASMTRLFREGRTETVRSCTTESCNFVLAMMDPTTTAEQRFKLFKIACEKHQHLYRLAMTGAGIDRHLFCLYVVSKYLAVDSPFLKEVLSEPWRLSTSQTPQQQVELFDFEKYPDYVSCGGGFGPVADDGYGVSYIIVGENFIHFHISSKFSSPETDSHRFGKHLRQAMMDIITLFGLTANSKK

[1] = system: A549, HCT116, cortical neurons, cortical astrocytes, BMDM, NRVM; assay: Respiration in intact cells offered glucose, glutamine, pyruvate (six cell types); assay type: cell-based
Experimental: All respirometry studies were conducted in either a Seahorse XF96 or XFe96 Analyzer. All experiments were conducted at 37° C., and at pH 7.4 (intact cells) or 7.2 (permeabilized cells and isolated mitochondria). Calculation of respiratory parameters was made according to standard protocols (Divakaruni, A. S., Paradyse, A., Ferrick, D. A., Murphy, A. N., and Jastroch, M. (2014a) Analysis and interpretation of microplate-based oxygen consumption and pH data. Meth. Enzym 547, 509-54), and all rates were corrected for non-mitochondrial respiration/background signal by subtracting the oxygen consumption rate insensitive to rotenone plus antimycin A.
When diagnosing an off-target effect of etomoxir (FIG. 5A, FIG. 5B, FIG. 5C), all cells apart from primary neurons were offered 8 mM glucose, 2 mM glutamine, and 2 mM pyruvate in unbuffered DMEM supplemented with 5 mM HEPES. […] Respiration in all intact cells was measured in the basal state as well as in response to 2 μM oligomycin, FCCP (either 400 nM, 800 nM or 1.2 μM as appropriate and previously optimized), and 0.2 μM rotenone with 1 μM antimycin A. Etomoxir (at concentrations indicated in the text), UK5099 (3 μM), or BPTES (3 μM) were added to the assay medium 30 min prior to measurements.

[2] = system: phosphate (Pi) transporter; assay: Phosphate transporter assay (mitochondrial swelling); assay type: biochemical, rat; conditions: 250 μM etomoxir, 100 μM NEM, 10 μM mersalyl
Experimental: Phosphate transport was measured by monitoring swelling of de-energized mitochondria in isotonic potassium phosphate medium based upon principles described by Coty, W. A. and Pedersen, P. L. (1975) Phosphate transport in rat liver mitochondria. Kinetics, inhibitor sensitivity, energy requirements, and labeled components. Mol Cell Biochem. 9, 109-24. As the phosphate carrier acts as electroneutral symporter with protons, the process is self-restricting due to generation of an opposing pH gradient. […] In the presence of nigericin, the proton fluxes cycle resulting in electro- and pH-neutral transport of potassium phosphate down its concentration gradient into the mitochondrial matrix, resulting in osmotic accumulation of water. Under these conditions, transport is limited by the activity of phosphate carrier, and can be recorded as mitochondrial swelling (a decrease in light scattering).
The measurements were performed in an LS-50B spectrofluorometer (Perkin-Elmer) at 540 nm. Assay medium contained 125 mM potassium phosphate, pH 7.2, 0.5 mM EGTA, and 2 μM rotenone. Mouse liver mitochondria (0.5 mg/ml) were treated with 250 μM etomoxir, 100 μM N-ethylmaleimide (NEM) (Klingenberg, M., Durand, R., and Guerin, B. (1974) Analysis of the reactivity of SH-reagents with the mitochondrial phosphate carrier. Eur J Biochem, 42, 135-150) or 10 μM mersalyl (Paradies, G. and Ruggiero, F. M. (1991) Effect of aging on the activity of the phosphate carrier and on the lipid composition in rat liver mitochondria. Arch Biochem Biophys. 284, 332-337) and the reaction was started with 5 μM nigericin. Typical traces from 3 experiments are shown. To establish the maximally swollen state of mitochondria, 80 μg/ml alamethicin was used.

## CCOC(=O)[C@@]1(CCCCCCOc2ccc(Cl)cc2)CO1 [etomoxir]
CPT-1; conditional CPT KO BMDMs
  sensitivity of respiration to 3 μM etomoxir: largely absent
CPT-1; permeabilized BMDMs
  EC50, FCCP-stimulated palmitoyl CoA-driven respiration: nanomolar
  concentration of saturable effect: less than 3 μM
[1]; 3 μM etomoxir, no fatty acids or carnitine
  maximal respiratory rate: did not inhibit respiration
[1]; increasing, high concentrations of etomoxir
  ATP-linked vs uncoupler-stimulated respiration: disproportionately inhibited ATP-linked respiration relative to uncoupler-stimulated respiration
[2]
  Pi transporter activity (rate of swelling): does not inhibit
[2]; listed as Etomoxir
  Pi transporter activity (rate of swelling): does not affect the rate of swelling

Source: patent US11813277B2, “Methods and agents for modulating inflammation” (The Regents of the University of California, priority 2018, dated 2023)
